This test concerns the target HCV proteinase (MBP-NS3″Gly 12-NS4A enzyme). Nature of the test: HCV proteinase inhibition: cleavage of quenched fluorescence substrate NS4A/B.F peptide by MBP-NS3″Gly 12-NS4A enzyme. The format is biochemical. The note with it: 10 μM NS4A/B.F peptide, pH 8.5, 10% DMSO, room temperature for 60 minutes; IC50 by manual graph analysis. The source says:
As mentioned earlier, the compounds of formula I and salts of acidic compounds of formula I with bases are inhibitors of proteases of viral origin.
Construction of Plasmid for the Expression of MBP-NS3″Gly 12-NS4A Enzyme in E. coli
The nucleotide sequence of this expression plasmid is given in SEQ ID NO:1 appended hereto and the amino acid sequence of its expression product is given in SEQ ID NO:2 appended hereto. It is based on the pMAL®-c2 vector supplied by New England Biolabs, Inc. (32 Tozer Rd., Beverly, Mass., USA). The principle of the construction was to create an in-frame fusion of the maltose binding protein (MBP) gene supplied by the pMAL-c2 vector, and sequences of the HCV genome necessary for NS3 proteinase activity. These HCV sequences were inserted between the EcoRI and HindIII sites of the pMAL-c2 polylinker (positions 2695 and 3556 respectively of the sequence given in SEQ ID NO:1).
HCV sequences were derived from plasmids pDS 3348-4045 and pBFK 3348-6062, described by Bartenschlager et al, 1993 (Journal of Virology, 67, 3835-3844). Regions encompassing the NS3 proteinase domain (amino acids 1007-1219) and the NS4A domain (amino acids 1658-1711) were isolated and inserted into the pMAL-c2 vector using standard recombinant DNA techniques, including the PCR amplification of required sequences. Between the NS3 and NS4A domains, a linker region was constructed using synthetic oligonucleotides (positions 3343-3390; amino acids 606-621). The resulting plasmid was used to transform E. coli (strain MC1061) cells and expression of the MBP-NS3″Gly 12-NS4A enzyme was induced as described below.
Protein Expression and Purification
E. coli (strain MC1061) cells transformed with the foregoing plasmid were grown in Luria broth containing ampicillin (100 μg/ml) at 37° C. The cells were grown until an optical density of 0.5 at 600 nm had been reached and enzyme expression was then induced by adding 1 mM isopropylthiogalactoside and incubating at 37° C. for a further 3 hours. The cells were harvested by centrifugation and stored at −80° C.
A pellet from […] bacterial culture was resuspended in E.coli lysis buffer (20 mM Tris HCl, pH 7.5, containing 150 mM NaCl, 1 mM EDTA and 10 mM dithiothreitol) and cell lysis was achieved by two passages through a French Pressure cell. The clear supernatant obtained by centrifugation (18000 g, 30 minutes) was then applied to an amylose resin column (4×1 cm) (New England Biolabs) which had been equilibrated with ice-cold 50 mM Tris HCl, pH 8.5, containing 200 mM NaCl, 1 mM dithiothreitol and 5% glycerol. The column was washed thoroughly with the equilibration buffer and bound protein was eluted using the equilibration buffer containing 10 mM maltose. Fractions of 1 ml were collected, with fractions containing the enzyme being pooled and stored at −80° C. Enzyme concentration was assayed by the method of M. B. Bradford, Analytical Biochemistry, 1976, vol. 72, p.248.
Compounds of formula I (routinely prepared as stock solutions in DMSO) were assayed for their ability to inhibit the cleavage of a quenched fluorescence substrate [NS4A/B.F peptide (N-[4-[4-(dimethylamino)phenylazo]benzoyl]-L-α-aspartyl-L-(α-glutamyl-L-methionyl-L-α-glutamyl-L-α-glutamyl-L-cysteinyl-L-alanyl-L-seryl-L-histidyl-N5-[2-(5-sulpho-1-naphthylamino)ethyl]-L-glutamin-amide); Wilkinson et al, Society for General Microbiology Meeting, University of Warwick, England, Mar. 28, 1996] based on the NS4A/4B cleavage site by enzyme MBP-NS3{acute over (ii)}Gly 12-NS4A in microtitre plates as follows:
The enzyme (0.4-0.6 μg) was added to a mixture (200 μl final volume) containing 50 mM Tris HCl, pH 8.5, with 1 mM NaCl, 0.1 mM EDTA, 1 mM dithiothreitol, 0.1% Triton X-100, 10 μM NS4A/B.F peptide and the test compound of formula I prepared as a stock solution in DMSO and added to give a 10% final concentration of DMSO. […]
Usually IC50 stands for the midpoint of a concentration-inhibition curve. High values mean a need for much substance, low ones inhibition by little substance. The molecule “1(RS)-[[N-[N-[N-[N-[N-(4-Acetamidobutyryl)-L-α-aspartyl-L-α-glutamyl]-2-methyl-L-phenylalanyl]-3-methyl-L-valyl]-L-leucyl]-amino]propylboronic acid” came in with an IC50 of 230 nM. This counts as sub-micromolar.

“2(RS)-[[N-[N-[N-[N2-(N-Acetyl-L-tyrosyl)-N6-nitro-L-arginyl]-2-methyl-L-phenylalanyl]-3-methyl-L-valyl]-L-leucyl]amino]-4,4,4-trifluorobutyraldehyde” displayed an IC50 of 44 nM.

On to “2(RS)-[[N-[N-[N-[N-[N-(3-Carboxypropionyl)-L-α-aspartyl-L-α-glutamyl]-2-methyl-L-phenylalanyl]-3-methyl-L-valyl]-O-benzyl-L-tyrosyl]amino]-4,4,4-trifluorobutyraldehyde”, for which inhibition was half-maximal at 200 nM (IC50). Compared with the last molecule, the IC50 is about 4.5-fold higher.

The molecule “2(RS)-[[N-[N-[N-[N-[N-(3-Carboxypropionyl)-L-α-aspartyl-O-benzyl-L-α-glutamyl]-2-methyl-L-phenylalanyl]-3-methyl-L-valyl]-L-leucyl]amino]-4,4,4-trifluorobutyraldehyde” had an IC50 of 110 nM. Against the preceding molecule, the IC50 is about 1.8-fold lower.

On to “2(RS)-[[N-[N-[N-[N-[N-(9-Hydroxy-9-fluorenyl)carbonyl]-L-seryl]-O-benzyl-D-seryl]-2-methyl-L-phenylalanyl]-3-methyl-L-valyl]-L-leucyl]-amino]-4,4,4-trifluorobutyraldehyde”, for which the IC50 was 20 nM.

On to `Cc1ccccc1C[C@H](NC(=O)[C@H](NC(=O)[C@H](CS)NC(=O)CCC(=O)O)C(C)C)C(=O)N[C@H](C(=O)N[C@@H](CC(C)C)C(=O)NC(C=O)CC(F)(F)F)C(C)(C)C` (mixture of isomers) [D, 2(RS)-[[N-[N-[N-[N-[N-(3-Carboxypropionyl)-L-cysteinyl]-D-valyl]-2-methyl-L-phenylalanyl]-3-methyl-L-valyl]-L-leucyl]amino]-4,4,4-trifluorobutyraldehyde], for which the IC50 is 140 nM.

For the origin of these results see patent US6372883B1, “Antiviral medicaments” (Hoffmann-La Roche Inc., priority 1998, dated 2002).
